Results on two molecules are retold here after article PMC8948939 (Pharmaceutics, 2022).

As a reminder, the Km is the substrate concentration at which the rate is half of its maximum. The term microsomal CLint denotes a measure of how fast metabolising enzymes remove a compound, apart from limits set by blood flow. Low values mean greater metabolic stability, high ones faster metabolism. Usually IC50 stands for the concentration at which inhibition is half-maximal. What is called Ki is a dissociation constant, usually derived from enzyme kinetics or from competition with a known ligand.

Several values for one entry are separate records, joined by “and”; a condition that tells them apart may be missing. Equal values may be shown once. Read-outs that look alike come from different tables or passages of the source. Where only a bound is given, the exact number is not on record here.

Data set [1] addresses T1, CYP3A4 in human liver microsomes (HLM) (Homo sapiens, UniProt P08684).
T1 construct: tissue Corning Inc; host or cells: pooled human liver microsomes (150 donors)
The data set is described as follows: Michaelis-Menten kinetics of midazolam 1-hydroxylation (CYP3A4 marker reaction) in HLM. The format is in vitro ADME. Conditions: midazolam 1-hydroxylation; HLM. The text has this: (§1) Towards the Elucidation of the Pharmacokinetics of
(§2) Josefine Schulz 1, Antonia Thomas 1, Ayatallah Saleh 1,2, Gerd Mikus 1,3, Charlotte Kloft 1,† and Robin Michelet 1,*,† 1 Department of Clinical Pharmacy & Biochemistry, Institute of Pharmacy, Freie Universitaet Berlin, Kelchstraße 31, 12169 Berlin, Germany
(§3) 2 Graduate Research Training Program PharMetrX, 12169 Berlin/Potsdam, Germany 3 Department of Clinical Pharmacology and Pharmacoepidemiology, University Hospital Heidelberg, Im Neuenheimer Feld 410, 69120 Heidelberg, Germany
(§4) * Correspondence: robin.michelet@fu-berlin.de; Tel.: +49-30-838-50659
(§5) † These authors contributed equally to this work
(§6) Supplementary Section S1. Marker reactions for CYP2C19, CYP2C9 and CYP3A4 […]
(§7) for CYP3A4 [1,2] were used to determine (i) intersystem extrapolation factors (ISEF), (ii) […]
(§8) (i) Experiments for the determination of Michaelis-Menten kinetics in HLM were performed at protein concentrations of 0.02, 0.04 and 0.05 mg/mL for the marker reactions of CYP2C19, CYP2C9 and CYP3A4 (n = 3 each), respectively. Two samples were taken from each incubation after 15 and 25 min for investigations on CYP2C19, after 5 and 10 min for CYP2C9 and after 7 and 12 min for CYP3A4, respectively. […]
(§9) were applied as substrate concentrations.
(§10) For investigations in rhCYP concentrations of 2.5 pmol/mL rhCYP2C19 (n = 3), […]
(§11) respectively. […]

Data set [2] has as its target T2, CYP3A4 (Homo sapiens, UniProt P08684). Put plainly: Michaelis-Menten kinetics of midazolam 1-hydroxylation by rhCYP3A4. The format is in vitro ADME. Also noted: purchased Corning Inc.
Excerpt: as §1, §2, §3, §4, §5, §6, §7, §8, §9, §10
respectively. Sampling time points were identical to those in HLM as were substrate […]
concentration of 0.2 mg/mL for 15 and 25 min (n = 2). Each probe substrate was incubated in the presence of each inhibitor. […]
(§12) were performed at concentrations of 0.2, 0.08 and 0.05 mg/mL HLM for CYP2C19, CYP2C9 and CYP3A4, respectively. IC50 and IC50 shift assays were performed at substrate […]
Reaction times were identical to those described […]
Target sequence in this assay (P08684 whole entry): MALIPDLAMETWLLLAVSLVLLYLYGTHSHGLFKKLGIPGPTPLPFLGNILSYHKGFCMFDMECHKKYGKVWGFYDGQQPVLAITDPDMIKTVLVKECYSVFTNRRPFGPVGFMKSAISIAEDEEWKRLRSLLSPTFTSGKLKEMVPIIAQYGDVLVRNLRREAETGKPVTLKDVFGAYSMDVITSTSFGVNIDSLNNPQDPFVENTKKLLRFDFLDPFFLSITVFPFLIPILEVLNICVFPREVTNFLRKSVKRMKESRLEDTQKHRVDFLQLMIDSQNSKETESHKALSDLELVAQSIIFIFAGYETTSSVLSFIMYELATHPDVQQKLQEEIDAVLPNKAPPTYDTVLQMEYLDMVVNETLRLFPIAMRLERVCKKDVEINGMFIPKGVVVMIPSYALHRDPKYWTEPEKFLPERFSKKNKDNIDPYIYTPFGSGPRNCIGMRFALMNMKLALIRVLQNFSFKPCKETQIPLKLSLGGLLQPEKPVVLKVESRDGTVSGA

Data set [3] concerns the target T2, CYP3A4. Put plainly: Michaelis-Menten kinetics of midazolam 1-hydroxylation (CYP3A4 marker reaction) in HLM. Also noted: tissue Corning Inc; host or cells: pooled human liver microsomes (150 donors). Particulars: human, human liver microsomes. The format is in vitro ADME.
Excerpt: as §1, §2, §3, §4, §5, §6, §7, §8, §9, §10, §11
Target sequence in this assay (P08684 2-503 limits assumed): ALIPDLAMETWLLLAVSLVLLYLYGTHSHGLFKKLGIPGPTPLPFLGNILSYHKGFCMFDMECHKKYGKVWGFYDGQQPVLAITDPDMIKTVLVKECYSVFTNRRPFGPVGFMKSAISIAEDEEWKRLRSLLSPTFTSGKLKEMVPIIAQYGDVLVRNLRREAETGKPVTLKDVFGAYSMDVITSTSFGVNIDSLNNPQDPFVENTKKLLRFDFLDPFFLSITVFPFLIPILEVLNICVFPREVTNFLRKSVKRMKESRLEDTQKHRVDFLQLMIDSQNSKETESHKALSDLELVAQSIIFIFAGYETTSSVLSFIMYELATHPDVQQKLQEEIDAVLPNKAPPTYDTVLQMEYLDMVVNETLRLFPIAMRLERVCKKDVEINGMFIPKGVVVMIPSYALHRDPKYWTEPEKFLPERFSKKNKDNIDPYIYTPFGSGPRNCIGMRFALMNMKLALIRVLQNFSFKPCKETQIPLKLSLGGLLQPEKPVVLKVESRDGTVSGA

The test system of data set [4] is human liver microsomes (HLM). Put plainly: Metabolic stability of voriconazole N-oxide and hydroxyvoriconazole in HLM. The format is in vitro ADME. Particulars: HLM 0.2 mg/mL. Here is the method:
An incubation without HLM served as a control (n = 1).

Data set [5] has as its system CYP3A4. Conditions: cited from earlier work.
For data set [6], the target named is T3, CYP2C19 (Homo sapiens, UniProt P33261). Put plainly: IC50 and IC50 shift on CYP2C19 marker reaction (S-mephenytoin 4-hydroxylation) in HLM. The format is in vitro ADME. Further details: tissue Corning Inc; host or cells: pooled human liver microsomes (150 donors). Here is the method:
(§13) Remaining activity (A, %) was calculated as the ratio of reaction velocities in the inhibited and non-inhibited incubations. IC50 and the steepness of the inhibition curve (H) were estimated by fitting the four-parameter inhibition model to the experimental data (Equation (9)). Maximum (Amax) and baseline activity (A0) were fixed to 100 and 0, respectively. […] (9) A,%=A0+Amax−A0/1+logCInhib/logIC50^H=100/1+logCInhib/logIC50^H […]
as §6, §7
(§14) Each probe substrate was incubated in the presence of each inhibitor. […]
as §12
(§15) Reaction times were identical to those described

Data set [7] concerns the target T4, CYP2C9 (Homo sapiens, UniProt P11712). Put plainly: IC50 and IC50 shift on CYP2C9 marker reaction (diclofenac 4-hydroxylation) in HLM. Format: in vitro ADME. Further details: tissue Corning Inc; host or cells: pooled human liver microsomes (150 donors). Here is the method:
as §13
Supplementary Section S1. […]
Two samples were taken
from each incubation after 15 and 25 min for investigations on CYP2C19, after 5 and
10 min for CYP2C9 and after 7 and 12 min for CYP3A4, respectively. […]
CYP2C9 and CYP3A4, respectively. IC50 and IC50 shift assays were performed at substrate
as §15

The target in data set [8] is T2, CYP3A4. Put plainly: IC50 and IC50 shift on CYP3A4 marker reaction (midazolam 1-hydroxylation) in HLM. The format is in vitro ADME. Also noted: tissue Corning Inc; host or cells: pooled human liver microsomes (150 donors). Conditions: for IC50 shift: human, human liver microsomes, pH 7.5, probe midazolam 1-hydroxylation (4.60 µM midazolam). Here is the method: as §13, §6, §7
Two samples were taken […]
from each incubation after 15 and 25 min for investigations on CYP2C19, after 5 and 10 min for CYP2C9 and after 7 and 12 min for CYP3A4, respectively. […]
CYP2C9 and CYP3A4, respectively. IC50 and IC50 shift assays were performed at substrate […]
as §15
(Microsomes from liver hold many membrane-bound enzymes, among them those of drug oxidation.)
Target sequence in this assay (P08684 2-503 limits assumed): as above

Data set [9] deals with T3, CYP2C19. The data set is described as follows: Type of reversible inhibition and Ki on CYP2C19 (S-mephenytoin 4-hydroxylation) in HLM. Format: in vitro ADME. Further details: tissue Corning Inc; host or cells: pooled human liver microsomes (150 donors). The protocol: (§16) Reaction velocities were investigated in function of the substrate ([S]) and inhibitor ([I]) concentration to determine KM, Vmax and Ki of the reaction. The obtained data were used to fit the three main models of reversible inhibition, i.e., competitive (Equation (10)), noncompetitive (Equation (11)) and uncompetitive (Equation (12)) using the “nls” function in R. The type of inhibition was determined according to the best model fit assessed with Akaike’s information criteria (AIC). […] (10) V=Vmax/1+KM/S1+I/Ki (11) V=Vmax/1+KM/S1+I/Ki (12) V=Vmax/1+KM/S+I/Ki […]
as §6, §7, §8
(§17) were applied as substrate concentrations. […]
as §14, §12, §15

The target of data set [10] is T4, CYP2C9. Put plainly: Type of reversible inhibition and Ki on CYP2C9 (diclofenac 4-hydroxylation) in HLM. Format: in vitro ADME. Further details: tissue Corning Inc; host or cells: pooled human liver microsomes (150 donors). The protocol:
as §16, §6, §7, §8, §17, §14, §12, §15

In data set [11] the target is T2, CYP3A4. The data set is described as follows: Type of reversible inhibition and Ki on CYP3A4 (midazolam 1-hydroxylation) in HLM. Format: in vitro ADME. Further details: tissue Corning Inc; host or cells: pooled human liver microsomes (150 donors). The protocol:
as §16, §6, §7, §8, §17, §14, §12, §15
Target sequence in this assay (P08684 2-503 limits assumed): as above

The target in data set [12] is T3, CYP2C19. Also noted: tissue Corning Inc; host or cells: pooled human liver microsomes (150 donors). Conditions: ref Hohmann et al. 42; cited from earlier work.
The target of data set [13] is T4, CYP2C9. Also noted: tissue Corning Inc; host or cells: pooled human liver microsomes (150 donors). Particulars: ref Giri et al. 84; cited from earlier work.
[14] abbreviates: midazolam 1-hydroxylation, rhCYP3A4.
[15] abbreviates: 30 min pre-incubation in the absence of NADPH.
Setting [16] is: 30 min pre-incubation in the absence of NADPH, read-out: IC50 NADPH (−) (95% Confidence Interval).
Setting [17] is: 30 min pre-incubation in the presence of NADPH.
Setting [18] is: 30 min pre-incubation in the presence of NADPH, read-out: IC50 NADPH (+) (95% Confidence Interval).

T3 sequence (P33261 whole entry): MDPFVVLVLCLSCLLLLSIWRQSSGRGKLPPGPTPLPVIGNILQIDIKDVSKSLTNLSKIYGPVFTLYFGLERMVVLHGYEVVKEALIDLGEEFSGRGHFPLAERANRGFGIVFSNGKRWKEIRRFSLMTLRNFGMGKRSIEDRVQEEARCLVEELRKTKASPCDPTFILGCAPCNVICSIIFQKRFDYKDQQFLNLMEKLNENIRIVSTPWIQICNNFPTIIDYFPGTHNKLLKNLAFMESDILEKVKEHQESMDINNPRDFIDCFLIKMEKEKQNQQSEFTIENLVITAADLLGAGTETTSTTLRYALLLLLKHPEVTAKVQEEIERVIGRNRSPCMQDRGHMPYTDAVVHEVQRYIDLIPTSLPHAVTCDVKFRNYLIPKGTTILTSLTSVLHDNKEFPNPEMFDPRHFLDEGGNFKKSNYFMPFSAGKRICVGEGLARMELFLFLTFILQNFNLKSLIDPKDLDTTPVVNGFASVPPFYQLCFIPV
T4 sequence (P11712 whole entry): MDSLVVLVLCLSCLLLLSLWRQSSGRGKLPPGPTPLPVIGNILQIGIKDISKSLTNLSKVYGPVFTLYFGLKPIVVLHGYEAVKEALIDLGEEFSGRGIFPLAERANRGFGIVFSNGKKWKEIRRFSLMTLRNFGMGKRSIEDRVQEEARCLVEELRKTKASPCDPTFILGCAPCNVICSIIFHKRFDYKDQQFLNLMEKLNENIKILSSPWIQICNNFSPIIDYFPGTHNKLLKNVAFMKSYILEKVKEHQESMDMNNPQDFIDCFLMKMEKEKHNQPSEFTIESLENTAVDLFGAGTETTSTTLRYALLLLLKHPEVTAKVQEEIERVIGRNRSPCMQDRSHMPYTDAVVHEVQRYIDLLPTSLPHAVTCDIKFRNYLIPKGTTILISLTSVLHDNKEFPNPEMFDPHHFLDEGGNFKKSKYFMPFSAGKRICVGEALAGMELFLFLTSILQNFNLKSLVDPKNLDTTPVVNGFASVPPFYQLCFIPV
T1 sequence (P08684 2-503 limits assumed): as the sequence (P08684 2-503 limits assumed) above

As to `Cc1ncc2n1-c1ccc(Cl)cc1C(c1ccccc1F)=NC2` [Midazolam, midazolam], in [1], the “Vmax,HLM (95% CI)” value came out at 559 pmol/min/mg. Besides, the Km on CYP3A4 [2] (human, recombinant human CYP3A4 (rhCYP3A4)) was found to be 1.96 µM. At CYP3A4 [2] (setting [14]), the “CLint, rhCYP” value is 0.850 µL/min/pmol and the “Vmax,rhCYP (95% CI)” value was found to be 1.67 pmol/min∙pmol. At CYP3A4 [3], the Michaelis-Menten constant (Km) worked out at 4.45 µM. The same molecule yielded an intrinsic metabolic clearance (microsomal CLint) on CYP3A4 [3] (pH 7.5, midazolam 1-hydroxylation, HLM) of 126 µL/min/mg.

For `C[C@@H](c1nc[n+]([O-])cc1F)[C@](O)(Cn1cncn1)c1ccc(F)cc1F` [NO, voriconazole N-oxide], the “depletion over time when incubated directly with HLM” value in data set [4] (5-60 min, 0.137 and 1.10 µM) was “no depletion”. In addition, in data set [4] (high concentration (1.10 µM), single replicates), the “% compared to a control incubation without HLM after 60 min” value is 96.9% and 109%. Further, the IC50 in the data set with CYP3A4 [5] (ref Giri et al. 84) is 8.7 µM; with CYP3A4 [5] (ref Hohmann et al. 42) it was 146 µM; on CYP2C19 [6] (setting [16]), greater than 34.2 µM; at CYP2C19 [6] (setting [18]), greater than 34.2 µM; at CYP2C19 [6] (without pre-incubation, […] S-mephenytoin, HLM, NO and OH–VRC estimates exceed applied concentrations (max 34.2 µM), read-out: IC50 (95% Confidence Interval)), greater than 34.2 µM; on CYP2C9 [7] (setting [16]), 10.1 µM. In addition, the IC50 on CYP2C9 [7] (setting [18]) was 14.9 µM; on CYP2C9 [7] (without pre-incubation, 4.73 µM diclofenac, HLM, read-out: IC50 (95% Confidence Interval)) it was 13.4 µM; at CYP3A4 [8] (setting [16]), 6.96 µM; at CYP3A4 [8] (setting [18]), 2.91 µM; at CYP3A4 [8] (without pre-incubation, 4.60 µM midazolam, HLM, read-out: IC50 (95% Confidence Interval)), 4.48 µM; on CYP2C19 [12] it was 40.2 µM. The IC50 at CYP2C9 [13] was 11.2 µM. Also, the “IC50 Shift NADPH (−)” value on CYP2C19 [6] (setting [15]) came out at 0.641. The figures for the “IC50 Shift NADPH (+)” value at CYP2C19 [6] (setting [17]) and on CYP3A4 [8] (setting [17]) were 0.900 and 1.54, respectively. For the same molecule, the “time dependence of inhibition” value at CYP2C19 [6] (IC50 shift assay), at CYP2C9 [7] (IC50 shift assay) and on CYP3A4 [8] (IC50 shift assay) was “Time-independent inhibition” in each case. Further, the IC50 shift on CYP2C9 [7] (human, human liver microsomes, pH 7.5, probe diclofenac 4-hydroxylation (4.73 µM diclofenac), 30 min pre-incubation in the absence of NADPH) is 1.34; at CYP3A4 [8] (setting [15]) it was 0.644; on CYP3A4 [8] (setting [17]) it was greater than 1.5. Moreover, on CYP2C9 [7] (human, human liver microsomes, pH 7.5, probe diclofenac (4-hydroxylation), 4.73 µM, 30 min pre-incubation in the presence of NADPH), the IC50 shift at 30 min is 0.899. In addition, the “Type of Reversible Inhibition” value at CYP2C19 [9] (CYP2C19, best model fit by AIC) is “noncompetitive”; on CYP2C9 [10] (CYP2C9, best model fit by AIC), “competitive”; at CYP3A4 [11] (CYP3A4, best model fit by AIC), “noncompetitive”. For the same molecule, the “inhibitory effect on CYP2C19 relative to VRC (fold lower, from Ki)” value against CYP2C19 [9] (compared to VRC) worked out at 31 fold. Moreover, the Ki came out at 58.6 µM at CYP2C19 [9] (read-out: Ki (95% CI)); 5.47 µM on CYP2C9 [10] (read-out: Ki (95% CI)); 5.24 µM at CYP3A4 [11] (CYP3A4, midazolam 1-hydroxylation, HLM, read-out: Ki (95% CI)). Moreover, the “inhibitory effect on CYP2C9 relative to VRC (fold, from Ki)” value against CYP2C9 [10] (compared to VRC) is 2.1 fold. Further, the “inhibitory effect on CYP3A4 relative to VRC (fold, from Ki)” value against CYP3A4 [11] (compared to VRC) is on record as 1.9 fold.
